Converted amounts (≈) assume the structure as drawn.
How the values were obtained:
[1] = Kinetic solubility of the compound in 0.01M HCl at pH 2 by nephelometry analysis; assay type: physicochemical; conditions: read-out: Kinetic_solubility
physchem = conditions: octanol/water, pH 7.4
[2] = Kinetic solubility of the compound in phosphate buffer at pH 6.5 by nephelometry analysis; assay type: physicochemical; conditions: read-out: Kinetic_solubility
[3] = Plasma concentration in Swiss mouse at 30 mg/kg, po after 24 hrs; assay type: ADME, organism-based; parameters: dose 30 mg/kg, route oral
Plasma [4] = assay: Average plasma concentration in Swiss mouse at 30 mg/kg, po after up to 24 hrs; assay type: ADME, organism-based; parameters: dose 30 mg/kg, route oral; conditions: in vivo
[5] = Plasma concentration in Swiss mouse at 30 mg/kg, po after 8 hrs; assay type: ADME, organism-based; parameters: dose 30 mg/kg, route oral
Plasma [6] = assay: Average plasma concentration in Swiss mouse at 30 mg/kg, po after up to 8 hrs; assay type: ADME, organism-based; parameters: dose 30 mg/kg, route oral; conditions: in vivo
[7] = Plasma concentration in Swiss mouse at 30 mg/kg, po after 0.5 hrs; assay type: ADME, organism-based; parameters: dose 30 mg/kg, route oral

solubility kinetic [1] [µg/mL] | logD (physchem) | solubility kinetic [2] [µg/mL] | concentration at 24 h [3] [nM] | Cave (Plasma [4]) [nM] | concentration at 8 h [5] [nM] | Cave (Plasma [6]) [nM] | concentration at 0.5 h [7] [nM] | SMILES
> 100 | 2.6 | 12.5 (≈ 34.8 µM) | – | – | – | – | – | COc1ccc(-c2cc(-c3ccc(-c4nnc(C)o4)cc3)cnc2N)cn1
> 100 | 2.4 | 12.5 (≈ 39.4 µM) | – | – | – | – | – | COc1ccc(-c2cc(-c3ccc4nccn4c3)cnc2N)cn1
> 100 | 3 | 6.3 (≈ 19 µM) | – | – | – | – | – | COc1ccc(-c2cc(-c3ccc4cnn(C)c4c3)cnc2N)cn1
> 100 | 2.9 | 6.3 (≈ 19.2 µM) | – | – | – | – | – | COc1ccc(-c2cc(-c3ccc4ncccc4c3)cnc2N)cn1
12.5 (≈ 38.9 µM) | 0.8 | 6.3 (≈ 19.6 µM) | – | – | – | – | – | COc1ccc(-c2cc(-c3ccc(C(=O)O)cc3)cnc2N)cn1
> 100 | 1.7 | 12.5 (≈ 39 µM) | 10 | 2400 | 1300 | 8200 | 10600 | COc1ccc(-c2cc(-c3ccc(C(N)=O)cc3)cnc2N)cn1
> 100 | 1.7 | 12.5 (≈ 39 µM) | – | – | – | – | – | COc1ccc(-c2cc(-c3cccc(C(N)=O)c3)cnc2N)cn1
50 (≈ 150 µM) | 1.8 | 50 (≈ 150 µM) | – | – | – | – | – | CNC(=O)c1ccc(-c2cnc(N)c(-c3ccc(OC)nc3)c2)cc1
> 100 | 2.3 | 25 (≈ 70.3 µM) | – | – | – | – | – | COc1ccc(-c2cc(-c3cccc(S(C)(=O)=O)c3)cnc2N)cn1
> 100 | 1.8 | 12.5 (≈ 35.1 µM) | – | – | – | – | – | COc1ccc(-c2cc(-c3ccc(S(N)(=O)=O)cc3)cnc2N)cn1
> 100 | 4.3 | 1.6 (≈ 4.43 µM) | – | – | – | – | – | COc1ccc(-c2cc(-c3ccc(OC(F)(F)F)cc3)cnc2N)cn1
> 100 | 4.2 | 1.6 (≈ 4.63 µM) | – | – | – | – | – | COc1ccc(-c2cc(-c3ccc(C(F)(F)F)cc3)cnc2N)cn1
> 100 | 2.8 | 25 (≈ 81.1 µM) | – | – | – | – | – | COc1ccc(-c2cnc(N)c(-c3ccc(OC)nc3)c2)cn1
> 100 | 2.4 | 6.3 (≈ 18.3 µM) | – | – | – | – | – | COc1ccc(-c2cc(-c3ccc(-n4cncn4)cc3)cnc2N)cn1
> 100 | 3.1 | 3.1 (≈ 9.03 µM) | – | – | – | – | – | COc1ccc(-c2cc(-c3ccc(-n4cccn4)cc3)cnc2N)cn1

Second part, the compound before the results:

SMILES | solubility kinetic [1] [µg/mL] | logD (physchem) | solubility kinetic [2] [µg/mL] | concentration at 24 h [3] [nM] | Cave (Plasma [4]) [nM] | concentration at 8 h [5] [nM] | Cave (Plasma [6]) [nM] | concentration at 0.5 h [7] [nM]
CN1CCN(C(=O)c2ccc(-c3cnc(N)c(-c4ccc(C(F)(F)F)cc4)c3)cc2)CC1 | > 100 | 3.9 | 25 (≈ 56.8 µM) | – | – | – | – | –
Nc1ncc(-c2ccc(C(=O)N3CCNCC3)cc2)cc1-c1ccc(C(F)(F)F)nc1 | > 100 | 2.4 | 50 (≈ 117 µM) | – | – | – | – | –
Nc1ncc(-c2ccc(C(=O)N3CCNCC3)cc2)cc1-c1ccc(C(F)(F)F)cc1 | > 100 | 3.3 | 25 (≈ 58.6 µM) | – | – | – | – | –
COc1ccc(-c2cc(-c3ccc(C(=O)N(C)C)cc3)cnc2N)cn1 | > 100 | 2.1 | > 100 | < 1 | – | 6400 | 25100 | 30800
COc1ccc(-c2cc(-c3ccc(C(=O)NCCCO)cc3)cnc2N)cn1 | > 100 | – | 12.5 (≈ 33 µM) | – | – | – | – | –
COc1ccc(-c2cc(-c3ccc(C(=O)NCCN4CCOCC4)cc3)cnc2N)cn1 | > 100 | 1.9 | > 100 | – | – | – | – | –
COc1ccc(-c2cc(-c3ccc(C(=O)NCCN4CCCC4)cc3)cnc2N)cn1 | > 100 | 2.5 | > 100 | – | – | – | – | –
COc1ccc(-c2cc(-c3ccc(C(=O)N4CCN(C)CC4)cc3)cnc2N)cn1 | > 100 | 2 | > 100 | – | – | – | – | –
COc1ccc(-c2cc(-c3ccc(C(=O)N4CCOCC4)cc3)cnc2N)cn1 | 25 (≈ 64 µM) | 2 | 25 (≈ 64 µM) | – | – | 800 | 7800 | 10300
Nc1ncc(-c2ccc(C(=O)N3CCOCC3)cc2)cc1-c1ccc(C(F)(F)F)nc1 | > 100 | 2.4 | 25 (≈ 58.4 µM) | – | – | 840 | 3400 | 4110
Nc1ncc(-c2ccc(C(=O)N3CCOCC3)cc2)cc1-c1ccc(C(F)(F)F)cc1 | > 100 | 3.1 | 6.3 (≈ 14.7 µM) | 1 | 100 | 50 | 200 | 300
CN1CCN(C(=O)c2ccc(-c3cnc(N)c(-c4ccc(C(F)(F)F)nc4)c3)cc2)CC1 | > 100 | 2.9 | > 100 | – | – | – | – | –
COc1ccc(-c2cc(-c3ccc(S(=O)(=O)N(C)C)cc3)cnc2N)cn1 | > 100 | 2.8 | 6.3 (≈ 16.4 µM) | – | – | – | – | –
CNS(=O)(=O)c1ccc(-c2cnc(N)c(-c3ccc(OC)nc3)c2)cc1 | > 100 | 2.2 | 12.5 (≈ 33.7 µM) | – | – | – | – | –
COc1ccc(-c2cc(-c3ccc(S(=O)(=O)NC4CC4)cc3)cnc2N)cn1 | > 100 | 2.7 | 6.3 (≈ 15.9 µM) | – | – | – | – | –
COc1ccc(-c2cc(-c3ccc(S(=O)(=O)N4CCOCC4)cc3)cnc2N)cn1 | > 100 | 2.7 | 6.3 (≈ 14.8 µM) | – | – | – | – | –
COc1ccc(-c2cc(-c3ccc(S(=O)(=O)N4CCN(C)CC4)cc3)cnc2N)cn1 | > 100 | 2.7 | 25 (≈ 56.9 µM) | – | – | – | – | –
COc1ccc(-c2cc(-c3ccc(NS(C)(=O)=O)cc3)cnc2N)cn1 | > 100 | 2.2 | 25 (≈ 67.5 µM) | – | – | – | – | –
COc1ccc(-c2cc(-c3ccc(S(C)(=O)=O)c(F)c3)cnc2N)cn1 | > 100 | 2.5 | 6.3 (≈ 16.9 µM) | – | – | – | – | –
COc1ccc(-c2cc(-c3ccc(S(C)(=O)=O)cc3C(F)(F)F)cnc2N)cn1 | > 100 | 2.7 | 12.5 (≈ 29.5 µM) | – | – | – | – | –

From ChEMBL document CHEMBL2177020, “Structure-activity relationship studies of orally active antimalarial 3,5-substituted 2-aminopyridines” (J Med Chem, 2012)
